8 compounds from ChEMBL document CHEMBL1201862, “PubChem BioAssay data set” (2004) can be followed below.

The structures appear in SMILES notation.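 Exposure lasted 48 hours, with cells grown in 96-well plates and compounds tested at five concentrations. GI50 marks 50% less growth.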 Active and inactive are the calls of the source. No stated cut-off is given here; in the data, active = GI50 up to about 1.1 µM and inactive = higher. Bounds are passed on as bounds.

Test systems include A549; COLO 205; EKVX; HOP-62; IGROV-1; KM12; LOX IMVI; Malme-3M; NCI/ADR-RES; OVCAR-5; OVCAR-8; RPMI-8226; SF-268; SF-295; SK-MEL-5; SN12C; SW-620; U-251; UACC-62; SR.
Assay in all cases: inhibition of tumour cell growth, NCI panel, 48 h

In the case of `CN1C(=O)c2ccccc2NC(=O)c2cnn(C)c21`, the GI50 in the assay on A549, in the assay on COLO 205, in the assay on EKVX, in the assay with HOP-62, in the assay with IGROV-1 and with KM12 was > 100 µM (inactive) each time. Also, the GI50 in the assay on LOX IMVI, in the assay on Malme-3M, in the assay on NCI/ADR-RES, in the assay with OVCAR-5, in the assay on OVCAR-8 and in the assay with RPMI-8226 was > 100 µM (inactive) in each case. For the same compound, the GI50 in the assay on SF-268, with SF-295, in the assay on SK-MEL-5, with SN12C, in the assay on SW-620 and in the assay on U-251 was > 100 µM (inactive) throughout. In the assay with UACC-62, the GI50 is > 100 µM (inactive).

On to `Oc1ccc(Br)cc1/C=N/C1CCCCC1`, for which the GI50 is > 100 µM (inactive) in the assay with A549; 65.5 µM (inactive) in the assay with COLO 205; > 100 µM (inactive) in the assay with EKVX; 45.4 µM (inactive) in the assay on HOP-62; 24.1 µM (inactive) with IGROV-1; 29.8 µM (inactive) in the assay with KM12. For the same compound, the GI50 with LOX IMVI was 13.3 µM (inactive); in the assay with Malme-3M it was 27.6 µM (inactive); in the assay on NCI/ADR-RES, 38.7 µM (inactive); in the assay on OVCAR-5, > 100 µM (inactive); in the assay on OVCAR-8, 20.5 µM (inactive); with RPMI-8226, 28.1 µM (inactive). Moreover, the GI50 with SF-268 was 10.6 µM (inactive); in the assay with SF-295, 41.8 µM (inactive); with SK-MEL-5, 19.2 µM (inactive); with SN12C it was < 0.01 µM (active); with SW-620, 24.8 µM (inactive); in the assay on U-251, 12.4 µM (inactive). The GI50 in the assay with UACC-62 was 32 µM (inactive).

In the case of `C[n+]1cccc2c(=O)c3ccccc3oc21`, the GI50 in the assay with A549, in the assay on COLO 205, with EKVX, in the assay with HOP-62, in the assay on IGROV-1 and with KM12 was > 100 µM (inactive) throughout. In addition, the GI50 in the assay on LOX IMVI, in the assay with Malme-3M, in the assay on NCI/ADR-RES, with OVCAR-5, in the assay with OVCAR-8 and in the assay with SF-268 was > 100 µM (inactive) in each case. Also, the GI50 in the assay on SF-295, in the assay on SK-MEL-5, in the assay on SN12C, in the assay on SR, with SW-620 and in the assay on U-251 was > 100 µM (inactive) throughout. Also, the GI50 in the assay with UACC-62 is > 100 µM (inactive).

For `O=c1[nH]c(=S)[nH]c2c(C3OC(CO)C(O)C3O)nsc12` (stereo unspecified), the GI50 in the assay on A549, in the assay with COLO 205, in the assay on EKVX, with HOP-62, with IGROV-1 and with LOX IMVI was > 100 µM (inactive) throughout. Moreover, the GI50 in the assay on Malme-3M, with NCI/ADR-RES, in the assay with OVCAR-5, in the assay with OVCAR-8, with SF-268 and in the assay with SF-295 was > 100 µM (inactive) throughout. Also, the GI50 in the assay with SK-MEL-5 was > 100 µM (inactive); in the assay on SN12C, > 100 µM (inactive); with SR, > 10 µM (inactive); with SW-620, > 100 µM (inactive); in the assay on U-251, > 100 µM (inactive); with UACC-62 it was > 100 µM (inactive).

For `COc1ccc(C2=Nn3c(nnc(Cc4ccc(Cl)cc4)c3=O)SC2)cc1`, the GI50 with A549 is 51.3 µM (inactive); with COLO 205 it was 50.8 µM (inactive); with EKVX, 52.2 µM (inactive); in the assay with HOP-62, 62.1 µM (inactive); in the assay with IGROV-1 it was 51.1 µM (inactive); in the assay with KM12 it was 35.8 µM (inactive). Also, the GI50 in the assay on LOX IMVI was 34.9 µM (inactive); in the assay with Malme-3M it was > 100 µM (inactive); in the assay on NCI/ADR-RES, 19.8 µM (inactive); in the assay with OVCAR-5, > 100 µM (inactive); with OVCAR-8 it was 93.1 µM (inactive); in the assay with RPMI-8226 it was 23.1 µM (inactive). Further, the GI50 with SF-268 is > 100 µM (inactive); in the assay with SF-295 it was 34.3 µM (inactive); in the assay with SK-MEL-5, 75.3 µM (inactive); with SN12C, 61.2 µM (inactive); with SW-620 it was 47.4 µM (inactive); in the assay with U-251 it was 40.3 µM (inactive). For the same compound, in the assay with UACC-62, the GI50 is 32.4 µM (inactive).

Take `CCN(CC)CCn1c(=O)c2c(C)c3oc4ccccc4oc3c(C)c2c1=O`: the GI50 in the assay with A549, in the assay on COLO 205, with EKVX, with HOP-62, in the assay with IGROV-1 and in the assay with KM12 was > 100 µM (inactive) in each case. For the same compound, the GI50 in the assay on LOX IMVI, with Malme-3M, with NCI/ADR-RES, with OVCAR-5, in the assay on OVCAR-8 and in the assay on RPMI-8226 was > 100 µM (inactive) throughout. The GI50 in the assay with SF-268, in the assay with SF-295, in the assay on SK-MEL-5, with SN12C, in the assay on SW-620 and in the assay on U-251 was > 100 µM (inactive) each time. In addition, the GI50 in the assay on UACC-62 is > 100 µM (inactive).

Take `CN(C)C(=S)N/N=C(\C(=N/NC(=S)N(C)C)c1ccccn1)c1ccccn1`: the GI50 in the assay on A549 is 6.55 µM (inactive); in the assay with COLO 205, 2.17 µM (inactive); in the assay on EKVX, 12 µM (inactive); in the assay on HOP-62 it was 10.9 µM (inactive); in the assay on IGROV-1, 8.41 µM (inactive); in the assay on KM12, 4.82 µM (inactive). The GI50 with LOX IMVI is 11.8 µM (inactive); in the assay with Malme-3M, 12.9 µM (inactive); with NCI/ADR-RES it was 20.7 µM (inactive); in the assay with OVCAR-5, 14 µM (inactive); in the assay on OVCAR-8, 7.14 µM (inactive); in the assay on RPMI-8226, 5.3 µM (inactive). The GI50 with SF-268 was 6.14 µM (inactive); in the assay on SF-295 it was 11.6 µM (inactive); in the assay on SK-MEL-5 it was 9.02 µM (inactive); with SN12C it was 5.41 µM (inactive); in the assay on SW-620, 6.24 µM (inactive); with U-251, 3.99 µM (inactive). The GI50 in the assay on UACC-62 is 6.3 µM (inactive).

As for `COC1=CC(=O)c2c(c(O)c3oc4cc(OC)cc(C)c4c(=O)c3c2O)C1=O` [BIKAVERIN], the GI50 in the assay with A549 is 1.6 µM (inactive); with COLO 205 it was 20.3 µM (inactive); in the assay with EKVX, 1.01 µM (active); in the assay with HOP-62 it was 1.1 µM (active); with IGROV-1, 1.08 µM (active); in the assay with KM12 it was 3.25 µM (inactive). The GI50 in the assay with LOX IMVI is 0.535 µM (active); with Malme-3M it was 1.17 µM (inactive); with NCI/ADR-RES, 0.881 µM (active); in the assay on OVCAR-5, 1.97 µM (inactive); with OVCAR-8, 0.178 µM (active); in the assay on RPMI-8226, 1.01 µM (active). For the same compound, the GI50 was 4.46 µM (inactive) in the assay with SF-268; 1.12 µM (inactive) in the assay on SF-295; 1 µM (active) with SK-MEL-5; 1.56 µM (inactive) in the assay on SN12C; 1.6 µM (inactive) in the assay on SW-620; 0.879 µM (active) in the assay on U-251. Besides, in the assay with UACC-62, the GI50 was 1.24 µM (inactive).
